Test results as given in US11554126B2, “Methods of treating residual lesions of vascular anomalies” (Georgetown University, priority 2017, dated 2023).

System: fibrofatty residua (FFR) from an involuted infantile hemangioma
Format: in vivo, human
Source text: A child was referred for treatment of an involuted IH. They were concerned about the visual appearance and the feeling of fullness caused by the significant convexity of the tumor. […] Initial measurement was 0.8 cm high and 7.5 cm wide. Management options including surgical excision and laser treatments were discussed. The patient's parent was apprehensive regarding surgery due to the inherent risks of scarring, nerve damage, infection, bleeding, and tissue necrosis.
As an alternative to these options, the present inventors considered administering DCA to the patient to reduce the protuberance of the mass. The associated risks of DCA administration, as well as off-label use, and lack of pediatric approval were discussed with the patient. Two series of injections were planned.
The site was anesthetized with a topical 40% lidocaine ointment. Following prepping with alcohol, an injection grid modified to overlay the affected tissue was applied. Subsequently, 0.2 mL of DCA concentrated to 2 mg/cm^2 was injected at 1 cm intervals using a total of 4.4 mL, followed by the application of ice packs.
As planned, injections were repeated 3 months later, using an additional 4.2 mL. […] The FFR measured 0.2 cm high and 6.4 cm wide (FIG. 2A-2B). […] Some of the superifical vessels appeared to resolve completely (clinically go away/not visible after treatment) post treatment.

duration of moderate post-injection pain, erythema, bruising, and swelling (female, human, in vivo): 24 to 48 h | skin tension (in vivo): either maintained or enhanced
SMILES: C[C@H](CCC(=O)O)[C@H]1CC[C@H]2[C@@H]3CC[C@@H]4C[C@H](O)CC[C@]4(C)[C@H]3C[C@H](O)[C@]12C [DCA, 3α,12α-dihydroxy-5β-cholan-24-oic acid]
improvement in visual appearance and degree of protrusion (after two series of intralesional DCA, two months after second injection): significant improvement | improvement after the first treatment (first series, 0.2 mL injections at 1 cm intervals, total 4.4 mL): marginal improvement | tolerability of the procedure (in vivo): tolerated the procedure well | visible superficial vessels and telangiectasias in the FFR (post treatment, some of the vessels, some appeared to resolve completely): decreased in size, caliber, and/or lightened in color | FFR height, final measurement post-treatment (right flank, after two series of intralesional DCA (4.4 mL, then 4.2 mL 3 months later), two months after second injection, baseline 0.8 cm): 0.2 cm | FFR width, final measurement post-treatment (right flank, after two series of intralesional DCA (4.4 mL, then 4.2 mL 3 months later), two months after second injection, baseline 7.5 cm): 6.4 cm
